Source: US20100273748A1, “ANTIMICROBIAL THERAPY” (priority 2006, published 2010)

How the values were obtained:
Staphylococcus aureus = experiment: Bacterial growth inhibition (turbidity OD600) with or without carbonate; type: cell-based
Group B Strep (GBS) = experiment: Bacterial growth inhibition with or without NaHCO3; type: cell-based; conditions: 16 uM CRAMP without NaHCO3
Salmonella = experiment: Bacterial growth inhibition with or without NaHCO3; type: cell-based; conditions: 16 uM CRAMP without NaHCO3
E. coli = experiment: Bacterial growth inhibition with or without NaHCO3; type: cell-based
antigen presentation = experiment: Antigen presentation in vitro; type: cell-based
C. albicans = experiment: Liquid assay, minimum fungicide concentration; type: cell-based, Candida albicans
Protocol: Action against the C. albicans was determined in Dixon medium (0.6% Peptone, 4% Malt Extract, 1% Glucose, 0.1% Ox Bile, 1% Tween-80) in sterile 96-well microtiter plates (Corning Inc., Corning, N.Y.) at a final volume of 50 ml. […] Microtiter plates were incubated at 37° C. for 24 h with peptides, then plated on Dixon agar to determine the MFC (minimum fungicide concentration).

[1] = system: Group A Streptococcus (NZ131)
Protocol: Solution killing was done in 10% TSB in 10 mM PB (TSB=30 gm/L Tryptic Soy Broth, Sigma, St Louis Mo.; 20×PB=27.6 g/L NaH2PO4-H2O, 53.65 g/L Na2HPO4-7H2O, pH 7.4). Bacteria in log-phase growth were suspended to 1×10^6 cells/ml, peptide added and incubated at 37° C. for 2 hr. Bacteria were then plated on TSB agar (TSB, Bactoagar 13 g/L, Becton Dickinson, Sparks Md.) for direct colony count and determination of CFU.
Activity against Group A Streptococcus (NZ131) was done only in solution assay as described.

[2] = system: wild-type S. aureus (clinical isolate); experiment: Radial diffusion assay; type: cell-based
[3] = system: Staphylococcus aureus mprF; experiment: Radial diffusion assay; type: cell-based
Protocol: Sweat collection and processing. Sweat was collected on paper tissues (Kimwipes, Kimberly-Clark, Ga.) from healthy volunteers after exercise. After collection, 20 ml of sweat was centrifuged at 2000 g for 15 min. at 4° C., filtered through a […] (Acrodisc syringe filter, 0.2 mm, low protein binding, Fisher scientific, Tustin, Calif.), and frozen at −80° C. For some experiments sweat was lyophilized to dryness, then suspended in 400 μl of distilled water (DW: cell culture grade, endotoxin free, GibcoBRL, Grand island, NY). For analysis of LL37 processing by sweat, 1.6 nmol of LL-37 synthetic peptide was incubated in 50 ml of sweat for 0, 1, 6, 24 hrs at 37° C. or 4° C. In some experiments proteinase inhibitors including; mixed protease inhibitor cocktail (1tab/10 ml, Roche, Indianapolis, Ind.), […] Bestatin, 10 mg/ml E-64, 10 mg/ml Aprotinin, (Sigma, St Louis, Mo.); 100 mM AEBSF, 100 mM Neutrophil elastase inhibitor (NEI) or 100 mM leukocyte elastase inhibitor (LEI) (Calbiochem, San Diego, Calif.) were added during incubation. After incubation, 2 ml was assayed by radial diffusion assay to determine antibacterial activity. For analysis by HPLC 32 nmoles LL-37 was incubated in 100u1. To control for potential contamination from paper tissues, parallel processing was done on tissues soaked in phosphate-buffered saline (PBS:137 mM NaCl, 2.7 mM KCL, 4.3 mM Na2HPO4-H2O, 1.4 mM KH2PO4, pH 7.4). No antimicrobial activity was detectable in these preparations. Protein concentrations were evaluated by BCA assay (protein assay reagent, Pierce, Rockford, Ill.) or Bradford protein assay (Bio-Rad, Hercules, Calif.) according to manufacture's instructions. Human tissue and blood collection was approved by the UCSD Human Research Protection Program.
Antimicrobial assays. For screening of antimicrobial activity of HPLC fractions, radial diffusion assay was used. Lyophilized HPLC fractions were dissolved in DW (GibcoBRL, Grand Island, N.Y.), and tested against Staphylococcus aureus mprF. Thin plates (1 mm) of 1% agarose in 0.5% tryptone containing approximately 1×10^6 cells/ml of S. aureus mprF were used. 1 mm wells were punched in the plates and […] of samples dissolved in tissue culture grade sterile water were loaded in each well.

[4] = system: enteroinvasive E. coli 029; experiment: Radial diffusion assay; type: cell-based
cathelicidin [5] = experiment: qPCR of cathelicidin mRNA in cultured keratinocytes; type: cell-based, human
Protocol: Cell culture and stimuli. Human keratinocytes were grown in serum-free EpiLife® cell culture media (Cascade Biologics; Portland, Oreg.) containing 0.06 mM Ca2+ and 1× EpiLife® defined growth supplement (EDGS) at 37° C. under standard tissue culture conditions. Stock cultures were maintained for up to five passages in this media with the addition of 50 U/mL penicillin and 50 μg/mL streptomycin. HaCaT keratinocytes were cultured in DMEM (Sigma, St. Louis, Mo.) with 10% FCS. Cells at 50-70% confluence were stimulated in fresh medium after preincubation with 1,25(OH)2 vitamin D3 (1,25D3; 0.1-100 nM, 4-24 h; Sigma). Alternatively, NHEK were stimulated in the presence of 1,25D3 (0.1-100 nM). Stimuli included TLR2,6 ligands Malp-2 (0.001-0.5 μg/ml; Alexis Biochemicals, Carlsbad, Calif.), FSL-1 (1-2 μg/ml, Invivogen, San Diego, Calif.) and zymosan (50 μg/ml; Invivogen), as well as flagellin (50 ng/ml; Alexis), LPS (1 μg/ml; Sigma), lipoteichoic acid (LTA; 10 μg/ml; Sigma), 19 kDA lipopeptide (10 μg/ml, a kind gift from S. Krutzik, Division of Dermatology, UCLA), CpG DNA (10 μg/ml; Sigma), Ca2+ (1.7 mM), LPS (1 μg/ml; Sigma), TNFα (20 ng/ml; Chemicon Temecula, Calif.) and TGFβ1 (0.1-1 μg/ml; R&D Systems, Minneapolis, Minn.). A TLR2 blocking antibody (αTLR2; clone TL2.1, 5 μg/ml, eBioscience, San Diego, Calif.) was utilized to investigate the role of TLR2 signaling. Furthermore, keratinocytes were pretreated with a vitamin D receptor antagonist (VDR-antagonist ZK159222 Schering AG; 10^-7M) or the CYP inhibitor itraconazole (ITRA; 10^-7M) before stimulation with TGFβ in the presence of 25OH vitamin D3 (25D3, 10 nM, Sigma).
Real-time RT-PCR (qPCR). RNA was extracted from cells, epidermal constructs or tissue using Trizol® and 1 μg RNA was reverse transcribed using iScript® (BioRad, Hercules, Calif.). Expression of cathelicidin and GAPDH was analysed by real-time RT-PCR. Predeveloped Taqman® assay probes (ABI, Foster City, Calif.) were used for the analyses of the expression of CYP24A1 (24-hydroxylase), CYP27B1 (1α-hydroxylase), CD14, CD36, TLR1, TLR2, TLR4, TLR6 and murine CD14. All analyses were performed in triplicate from 2-5 independent experiments in an ABI Prism® 7000 Sequence Detection System. Fold induction relative to the vehicle treated control in in vitro experiments was calculated using the comparative Ct method, where ΔΔCt is ΔCt(stimulant)-ΔCt(vehicle), ΔCt is Ct(gene)-Ct(GAPDH) and Ct is the cycle at which an arbitrary detection threshold is crossed. For quantification of transcript abundance in tissue samples target gene expression was normalized to GAPDH and compared to non-treated or non-injured skin.

CYP27B1 = experiment: qPCR of CYP27B1 mRNA in cultured keratinocytes; type: cell-based, human; conditions: 24 hours, TGF 1 μg/ml, TNFα 20 ng/ml, TLR2 ligand Malp-2
Protocol: (§1) Cell culture and stimuli. Human keratinocytes were grown in serum-free EpiLife® cell culture media (Cascade Biologics; Portland, Oreg.) containing 0.06 mM Ca2+ and 1× EpiLife® defined growth supplement (EDGS) at 37° C. under standard tissue culture conditions. Stock cultures were maintained for up to five passages in this media with the addition of 50 U/mL penicillin and 50 μg/mL streptomycin. HaCaT keratinocytes were cultured in DMEM (Sigma, St. Louis, Mo.) with 10% FCS. Cells at 50-70% confluence were stimulated in fresh medium after preincubation with 1,25(OH)2 vitamin D3 (1,25D3; 0.1-100 nM, 4-24 h; Sigma). Alternatively, NHEK were stimulated in the presence of 1,25D3 (0.1-100 nM). […]
(§2) Real-time RT-PCR (qPCR). […] Expression of cathelicidin and GAPDH was analysed by real-time RT-PCR. […] Fold induction relative to the vehicle treated control in in vitro experiments was calculated using the comparative Ct method, where ΔΔCt is ΔCt(stimulant)-ΔCt(vehicle), ΔCt is Ct(gene)-Ct(GAPDH) and Ct is the cycle at which an arbitrary detection threshold is crossed. For quantification of transcript abundance in tissue samples target gene expression was normalized to GAPDH and compared to non-treated or non-injured skin.

cathelicidin [6] = experiment: Cathelicidin peptide immunostaining in organotypic epidermal constructs; type: cell-based, human
Excerpt: Organotypic culture. Epiderm™ human skin-like tissue constructs were obtained from MatTek (Ashland, Mass.) and cultured according to manufacturer's instructions. […] Skin constructs were cut after stimulation and transferred to Trizol® (Invitrogen, Carlsbad, Calif.) for RNA extraction or immediately frozen in Tissue-Tek® (Sakura, Torrance, Calif.) for immunostaining.
Immunostaining. After fixation in 2% PFA and subsequent washings in PBS, sections from skin tissue or epidermal constructs were blocked in 3% BSA in PBS for 30 min at RT and stained with anti-cathelicidin LL-37 primary antibody or preimmune serum. After washings in PBS, slides from epidermal constructs were re-probed with a FITC labeled goat anti-chicken antibody. Nuclei were detected with DAPI. After subsequent washings with PBS slides, were mounted in ProLong Anti-Fade reagent (Molecular Probes, Eugene, Oreg.) and evaluated with an Olympus BX41 microscope (Olympus, Melville, N.Y.). Paraffin embedded formalin fixed tissue sections were rehydrated in a series of toluene, ethanol, and PBS. Endogenous peroxidase activity was quenched by 30 min incubation in 0.3% H2O2 in water, and sections microwaved for 4 min in antigen retrieval solution (0.01M citric acid, 0.05M

cathelicidin promoter = experiment: Cathelicidin (CAMP) promoter luciferase reporter in HaCat keratinocytes; type: cell-based, human
Excerpt: Promoter analysis and site directed mutagenesis. […]. Primers were designed to introduce an NheI restriction site at the 5″end and an XhoI restriction site at the 3″end of the amplicon. The amplification product was cloned into the TOPO vector (Invitrogen) and transformed into E. coli TOP10 OneShot competent cells (Invitrogen). After DNA purification using the WizardPLus, SV Miniprep purification system (Promega, Madison, Wis.) the construct was digested with NheI and XhoI and then subcloned into the promoterless pGL3-basic firefly luciferase vector (Promega). […]. The resulting plasmid lacking the VDRE binding site cloned in the pGL3-basic vector was termed pGL-3 1500-VDRE. All resulting constructs were confirmed by sequencing. For transfection HaCat cells were seeded in 24 well plates (BD Biosciences) and used for transfection at 50 to 70% confluence. Cells were transfected with the indicated CAMP reporter plasmids and 0.1 μg of an internal-control Renilla luciferase expression plasmid (pRL-TK; Promega, Madison, Wis.) by using 1.5 μl of transfection reagent Fugene 6 (Roche) according to the manufacturer's instructions. […] Firefly luciferase activity from the CAMP pGL3 reporter vectors and Renilla luciferase activity were measured by the Dual Luciferase Assay system (Promega) in a luminometer (Optocomp I, MGM Instruments, Hamden, Conn.). […]

acetylated histone H4 = experiment: Histone H4 acetylation in keratinocytes (immunofluorescence, Western blot); type: cell-based, human; conditions: NHEK stimulated with butyrate or TLR ligand
Protocol: Panel a; Immunofluorescence staining of acetylated histone H4 protein in NHEK treated with HDACi in the presence or absence of 1,25D3. […] Panel b: Western blot of acetylated histone 4 from keratinocytes treated with the HDACi butyrate or TLR agonists. […] Bar=30 μM.
The abundance of acetylated histone was directly measured to confirm the inhibitory effects of butyrate and TSA on HDACs. […] To determine if changes in histone acetylation occur upon stimulation of keratinocytes with TLR ligands NHEK were stimulated with different TLR ligands and histone acetylation was assessed.

IL-8 = experiment: qPCR of IL-8 transcript in cultured keratinocytes; type: cell-based, human; conditions: Malp-2 (0.1 μg ml^−1) only
Protocol: as §1, §2

[7] = 16 uM CRAMP without 50 mM NaHCO3

## CRAMP
Staphylococcus aureus; 16 uM CRAMP with 50 mM NaHCO3
  susceptibility to peptide: became susceptible
Staphylococcus aureus; [7]
  susceptibility to peptide: resistant
Staphylococcus aureus; 20% TSB, 1 mM NaH2PO4, with or without 50 mM NaHCO3, pH 7.4
  change of minimal inhibitory concentration (MIC) by NaHCO3: greatly reduced
Group B Strep (GBS)
  susceptibility to peptide: susceptible even without NaHCO3
Salmonella
  susceptibility to peptide: susceptible even without NaHCO3
E. coli; 16 uM CRAMP with 50 mM NaHCO3
  susceptibility to peptide: became susceptible
E. coli; [7]
  susceptibility to peptide: resistant
Antigen presentation
  antigen presentation in vitro: inhibits antigen presentation in vitro

## SSLLEKGLDGAKKAVGGLGKLGKDAVEDLESVGKGAVHDVKDVLDSV [DCD, dermcidin antimicrobial peptide of human sweat]
C. albicans
  Liquid Assay, minimal concentration required to kill C. albicans ATCC 14053 (head printed truncated: albicans CC 14053): 7 μm
[1]
  Liquid Assay, minimal concentration required to kill GAS (NZ131): 4 μm
[2]
  Radial Diffusion Assay, minimal inhibitory concentration (MIC), S. aureus (wt): 4 μm
[3]
  Radial Diffusion Assay, minimal inhibitory concentration (MIC), S. aureus mprF (head printed truncated: aureus cF): 4 μm
[4]
  Radial Diffusion Assay, minimal inhibitory concentration (MIC), E. coli (O29)): 4 μm

## Malp-2
Cathelicidin [5]; Malp-2 (0.1 μg ml^−1) alone
  cathelicidin transcript abundance: has no effect
Cathelicidin [5]; keratinocyte monolayers in high calcium (1.7 mM), no 1,25D3
  cathelicidin response to Malp-2: did not respond to TLR2,6 activation by Malp-2
Cathelicidin [5]; keratinocytes pretreated with 1,25D3 0.1 nM 24 hours, then TLR ligand 24 hours
  cathelicidin expression in response to TLR ligand: responded to Malp-2
CYP27B1
  CYP27B1 expression: could be induced
Cathelicidin [6]; Malp-2 0.1 μg/ml with 1,25D3 (100 nM)
  cathelicidin peptide response to Malp-2: did after its addition
Cathelicidin [6]; Malp-2 0.1 μg/ml, absence of 1,25D3
  cathelicidin peptide response to Malp-2: did not respond to Malp-2 in the absence of 1,25D3
Cathelicidin promoter; Malp-2 0.1 μg/ml in the presence of 1,25D3 (100 nM), construct including the VDRE
  cathelicidin promoter activity: responsive to Malp-2
Cathelicidin promoter; absence of 1,25D3 or the VDRE
  cathelicidin promoter activity: no significant effect
Acetylated histone H4
  acetylation of histone H4: also increased histone acetylation
IL-8
  IL-8 expression: increased when stimulated with only Malp-2
